Assay results from the supplement of paper PMC10627819.

Key:
Test in all cases: fitness (endpoint OD595 vs no drug) (fraction); higher = more growth
S. aureus Newman = system: S. aureus Newman
Summary of the method: (§1)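 At 37 °C, bacteria in TSB, LB Lennox or CY were grown in 384-well plates from a starting OD595 of 0.01. OD595 was measured every 30 min for 14 h, with the first reading used as background. Fitness is the optical density at the switch to stationary phase as a fraction of the robust mean of no-drug control wells, capped at 1.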

S. pneumoniae D39V = system: S. pneumoniae D39V
Summary of the method: as §1

B. subtilis 168 = system: B. subtilis 168
Summary of the method: as §1
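Note: OD595 on entry to stationary phase over no-drug wells; at most 1.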

O=C(O)c1cn(C2CC2)c2cc(N3CCNCC3)c(F)cc2c1=O [Ciprofloxacin] + CO/N=C(\C(=O)N[C@@H]1C(=O)N2C(C(=O)[O-])=C(C[N+]3(C)CCCC3)CS[C@H]12)c1csc(N)n1 [Cefepime]
Settings | fitness
S. aureus Newman, first compound 0.0375 µg/mL, partner 0.125 µg/mL | 0.764
S. aureus Newman, first compound 0.0375 µg/mL, partner 0.25 µg/mL | 0.684
S. aureus Newman, first compound 0.0375 µg/mL, partner 0.5 µg/mL | 0.642
S. aureus Newman, first compound 0.075 µg/mL, partner 0.125 µg/mL | 0.686
S. aureus Newman, first compound 0.075 µg/mL, partner 0.25 µg/mL | 0.667
S. aureus Newman, first compound 0.075 µg/mL, partner 0.5 µg/mL | 0.604
S. pneumoniae D39V, first compound 0.125 µg/mL, partner 0.007 µg/mL | 0.991
S. pneumoniae D39V, first compound 0.125 µg/mL, partner 0.0078 µg/mL | ≥ 1
S. pneumoniae D39V, first compound 0.125 µg/mL, partner 0.014 µg/mL | ≥ 1
S. pneumoniae D39V, first compound 0.125 µg/mL, partner 0.0155 µg/mL | 0.935
S. pneumoniae D39V, first compound 0.125 µg/mL, partner 0.028 µg/mL | 0.917
S. pneumoniae D39V, first compound 0.25 µg/mL, partner 0.007 µg/mL | 0.942
S. pneumoniae D39V, first compound 0.25 µg/mL, partner 0.014 µg/mL | 0.972
S. pneumoniae D39V, first compound 0.25 µg/mL, partner 0.028 µg/mL | 0.841
S. pneumoniae D39V, first compound 0.5 µg/mL, partner 0.007 µg/mL | 0.877
S. pneumoniae D39V, first compound 0.5 µg/mL, partner 0.0078 µg/mL | 0.811
S. pneumoniae D39V, first compound 0.5 µg/mL, partner 0.014 µg/mL | 0.903
S. pneumoniae D39V, first compound 0.5 µg/mL, partner 0.0155 µg/mL | 0.734
S. pneumoniae D39V, first compound 0.5 µg/mL, partner 0.028 µg/mL | 0.779
S. pneumoniae D39V, first compound 0.5 µg/mL, partner 0.031 µg/mL | 0.289

S. pneumoniae D39V, first compound 0.25 µg/mL, one replicate
Settings | fitness
partner 0.0078 µg/mL | 0.929
partner 0.0155 µg/mL | 0.959
partner 0.031 µg/mL | 0.741

CC1(C)S[C@@H]2[C@H](NC(=O)Cc3ccccc3)C(=O)N2[C@H]1C(=O)O [Penicillin G] + Cc1cc(NS(=O)(=O)c2ccc(N)cc2)no1 [Sulfamethoxazol]
fitness, S. aureus Newman
Settings | first compound 0.0195 µg/mL | first compound 0.039 µg/mL | first compound 0.078 µg/mL
partner 1 µg/mL | 0.929 | 0.912 | 0.888
partner 2 µg/mL | 0.957 | – | 0.879

S. aureus Newman, partner 8 µg/mL, one replicate
Settings | fitness
first compound 0.0195 µg/mL | 0.859
first compound 0.039 µg/mL | 0.87
first compound 0.078 µg/mL | 0.882

O=C(O)c1cn(C2CC2)c2cc(N3CCNCC3)c(F)cc2c1=O [Ciprofloxacin] + O=C(O)[C@H]1/C(=C/CO)O[C@@H]2CC(=O)N21 [Clavulanic acid]
fitness, S. aureus Newman, one replicate
Settings | first compound 0.078 µg/mL | first compound 0.156 µg/mL | first compound 0.312 µg/mL
partner 0.03125 µg/mL | 0.709 | 0.283 | 0.143
partner 0.0625 µg/mL | 0.695 | 0.216 | 0.0875
partner 0.125 µg/mL | 0.699 | 0.211 | 0.116

Settings | fitness
B. subtilis 168, first compound 0.0098 µg/mL, partner 1.5 µg/mL | 0.912
B. subtilis 168, first compound 0.0098 µg/mL, partner 3 µg/mL | 0.85
B. subtilis 168, first compound 0.0098 µg/mL, partner 6 µg/mL | 0.717
B. subtilis 168, first compound 0.0195 µg/mL, partner 1.5 µg/mL | 0.758
B. subtilis 168, first compound 0.0195 µg/mL, partner 3 µg/mL | 0.643
B. subtilis 168, first compound 0.039 µg/mL, partner 1.5 µg/mL | 0.151
B. subtilis 168, first compound 0.039 µg/mL, partner 3 µg/mL | 0.0402
B. subtilis 168, first compound 0.039 µg/mL, partner 6 µg/mL | 0.0214
S. pneumoniae D39V, first compound 0.125 µg/mL, partner 0.5 µg/mL | 0.957
S. pneumoniae D39V, first compound 0.125 µg/mL, partner 1 µg/mL | 0.913
S. pneumoniae D39V, first compound 0.125 µg/mL, partner 2 µg/mL | 0.796
S. pneumoniae D39V, first compound 0.25 µg/mL, partner 0.5 µg/mL | 0.806
S. pneumoniae D39V, first compound 0.25 µg/mL, partner 1 µg/mL | 0.788

CO/N=C(\C(=O)N[C@@H]1C(=O)N2C(C(=O)O)=C(COC(N)=O)CS[C@H]12)c1ccco1 [Cefuroxime] + CO[C@@]12[C@H](COC(N)=O)C3=C(C(=O)C(C)=C(N)C3=O)N1C[C@@H]1N[C@@H]12 [Mitomycin C]
fitness, S. aureus Newman, one replicate
Settings | first compound 0.04875 µg/mL | first compound 0.0975 µg/mL | first compound 0.195 µg/mL
partner 0.0156 µg/mL | 0.6 | 0.597 | 0.653
partner 0.0312 µg/mL | 0.35 | 0.338 | 0.332
partner 0.0625 µg/mL | 0.537 | 0.488 | 0.413

CC1(C)S[C@@H]2[C@H](NC(=O)Cc3ccccc3)C(=O)N2[C@H]1C(=O)O [Penicillin G] + COc1ccc(C[C@H](N)C(=O)N[C@H]2[C@@H](O)[C@H](n3cnc4c(N(C)C)ncnc43)O[C@@H]2CO)cc1 [Puromycin]
fitness, S. aureus Newman
Settings | first compound 0.0195 µg/mL | first compound 0.039 µg/mL | first compound 0.078 µg/mL
partner 0.39 µg/mL | 0.879 | 0.933 | 0.909
partner 0.78 µg/mL | 0.914 | 0.935 | 0.868
partner 1.56 µg/mL | 0.929 | 0.941 | 0.961

CC1(C)S[C@@H]2[C@H](NC(=O)Cc3ccccc3)C(=O)N2[C@H]1C(=O)O [Penicillin G] + CN[C@@H]1[C@H](O)[C@H](NC)[C@H]2O[C@@]3(O)C(=O)C[C@@H](C)O[C@H]3O[C@@H]2[C@H]1O [Spectinomycin]
fitness, S. aureus Newman
Settings | first compound 0.0195 µg/mL | first compound 0.039 µg/mL | first compound 0.078 µg/mL
partner 4 µg/mL | 0.857 | 0.848 | 0.817
partner 8 µg/mL | 0.852 | 0.857 | 0.828
partner 16 µg/mL | 0.844 | 0.806 | 0.802

fitness, S. aureus Newman, one replicate
Settings | first compound 0.0195 µg/mL | first compound 0.039 µg/mL | first compound 0.078 µg/mL
partner 32 µg/mL | 0.462 | 0.35 | 0.272
partner 64 µg/mL | 0.0086 | 0.0192 | 0.0551

C[C@@H]1O[C@@H]1P(=O)(O)O [Fosfomycin] + CC1(C)S[C@@H]2[C@H](NC(=O)Cc3ccccc3)C(=O)N2[C@H]1C(=O)O [Penicillin G]
fitness, S. aureus Newman
Settings | first compound 0.781 µg/mL | first compound 1.562 µg/mL | first compound 3.124 µg/mL
partner 0.0195 µg/mL | 0.582 | 0.498 | 0.167
partner 0.039 µg/mL | 0.583 | 0.516 | 0.171
partner 0.078 µg/mL | 0.54 | 0.508 | 0.153
